Reference: patent US20060293390A1 (priority 2003, published 2006)
Values joined by “and” are separate entries in the source; they are usually repeats but may differ in a detail not shown here. Equal entries are not always repeated.

Tests used:
[1] = tested on: bladder cancer cell line RT112; assay: Lactate transport: enzymatic determination of lactate in supernatants (FIG. 3); assay type: cell-based, human
Experimental: There is plotted a control measurement which indicates lactate efflux in dependence of pH and without any Diflunisal influence. […] The lactate transport was measured by qualitative enzymatic determination of lactate in supernatants of RT112 cells at 340 nm. RT112 cells were harvested, washed twice and resuspended in culture media to yield a density of 2×10^5/ml. 500 μl/well of the RT112 cell suspension were seeded into 24 well microtiter plates (BD) and incubated overnight at 37° C. and 5% CO2. The supernatant was replaced by 450 μl pH-adjusted culture medium (pH 6.0-7.4) and 50 μl of the solution of preferred substances or 500 μl/well pH-adjusted culture medium alone (control). Again, the cells were incubated for 24 h at 37° C. and 5% CO2. The measurement of lactate in the supernatants at 340 nm (PERKIN-ELMER, Lambda 17. UV-VIS Spectrophotometer, Überlingen, Germany) was performed according to the manufacturer's instructions (SIGMA DIAGNOSTICS, Deisenhofen, Germany; Lactate: Quantitative, Enzymatic Determination of Lactate in Whole Blood at 340 nm (Procedure No. 826-UV)).

[2] = Resorption of orally administered Diflunisal: concentration in blood / interstitial milieu; assay type: in vivo
RT112 cells = assay: Respiration: mitochondrial activity, XTT assay (FIG. 4); assay type: cell-based, human
Experimental: This behavior reflects the apoptosis induction from the second affinity level of albumin. Increasing the concentrations higher than 1.0 mM also the whole respiration activity within the pH range 7.0-7.4 is diminished and falls to 0 at 1.5 mM. The same is true with concentrations up to 2.0 mM. This effect is introduced by apoptosis at pH 7.0-7.4, accelerated by the third and fourth affinity level of albumin. […] The mitochondrial activity of RT112 was determined using a colorimetric assay (XTT assay). […] The mitochondrial succinate-tetrazolium reductase system cleaves the tetrazolium salt XTT to formazan. The amount of this dye is directly correlated to the number of metabolically active cells, as the enzyme system is only active in respirating and viable cells. For this purpose, RT112 cells were harvested, washed twice and resuspended in culture media to yield a density of 2.5×10^5/ml. 100 μl/well of the RT112 cell suspension were seeded into 96 well microtiter plates (BECTON DICKINSON (BD), Heidelberg, Germany) and incubated overnight at 37° C. and 5% CO2. The supernatant was replaced by 90 μl pH-adjusted culture medium (pH 6.0-7.4) and 10 μl of preferred substances or 100 μl/well pH-adjusted culture medium alone (control). The cells were incubated for various time periods at 37° C. and 5% CO2. Thereafter, cells were washed twice and reincubated in fresh pH-adjusted culture medium. After the incubation period, pH of each well was determined with highly sensitive microelectrodes before 50 μl XTT labeling mixture was added. The cells were further incubated for additional 4 h at 37° C. and 5% CO2. The spectrophotometric absorbance of the samples was measured using a microtiter plate (ELISA) reader ([…], Denkendorf, Germany) at a wavelength of […] (630 nm as reference). Data acquisition and analysis was performed using BioLinx 2.1 software ([…]).

[3] = tested on: bladder cancer cell line RT112; assay: Apoptosis: cytoplasmic histone-associated DNA fragments, photometric enzyme immunoassay (FIG. 1); assay type: cell-based, human
Experimental: FIG. 1: FIG. 1 is a representation of apoptosis measurements with a bladder cancer cell line RT112. […] Besides the control measurements without Diflunisal, there is also a “positive” control (CAM) registered with a defined calibrated system. Apoptosis was measured by determination of cytoplasmic histone-associated DNA fragments (mono- and oligonucleosomes) after induced cell death. The qualitative and quantitative in vitro determination of apoptosis in RT112 tumor cells was analyzed with a photometric enzyme immunoassay. In brief, RT112 cells were harvested, washed twice and resuspended in culture media to yield a density of 2.5×10^5/ml. 100 μl/well of the RT112 cell suspension were seeded into 96 well microtiter plates (obtainable from BECTON DICKINSON) and incubated overnight at 37° C. and 5% CO2. The supernatant was replaced by 90 μl pH-adjusted culture medium alone (control). Again, the cells were incubated for various time periods at 37° C. and 5% CO2. Supernatants of the cell cultures were discarded and RT112 cells were lysed in lysis buffer for 30 minutes at RT (25° C.). The cytoplasmic fractions were transferred into a streptavidin-coated microtiter plate, and the working procedure for the ELISA was performed according to the manufacturer's instructions (the ELISA test was obtained from BOEHRINGER […], Germany). […] But there is also a superimposed part of the third level.

[4] = tested on: colon and colorectal cancer; conditions: cited from earlier work
leukemia cell line K-562 = assay: Pore formation: PI-stained dead cells by flow cytometry (FIG. 2); assay type: cell-based, human
Experimental: FIG. 2: FIG. 2 is a representation of pore formation under conditions of interstitial albumin concentration of 0.2 mM. […] The dead cell fraction compared to the total cell number is measured in a flow cytometer. The experiments were conducted with the leukemia cell line K-562. […] Of minor interest is the second pore formation process starting at pH 6.4, because this process functions beyond the acidity milieu of most tumors. […] Pore formation was measured by determination of the necrotic cells measured by flow cytometry. Cultures of the leukemia cell line K-562 were harvested, and 5×10^5 cells were added into 6 ml tubes (BD). After centrifugation (250×g; 5 min; room temperature (25° C.)) the cells were resuspended in 900 μl pH-adjusted culture medium (pH 6.0-7.4; RPMI 1640 without NaHCO3; available from SIGMA). Then test substances were added to the samples and cells were incubated in a final volume of 1 ml at 37° C. in a water bath. After the incubation period the pH of the samples was measured, and the cells were washed and resuspended in 300 μl FACS medium (PBS+2% FCS and 0.1% NaN3). Cells were stained with propidium iodide (PI; available form SIGMA; 25 μl/25 μg/tube) for 15 minutes at RT (25° C.). Subsequently analysis of the stained cells was performed on an EPICS XL-MCL flow cytometer (available from COULTER, Krefeld, Germany), equipped with a 15 mW argon laser at an excitation wavelength of 488 nm. PI fluorescence was measured in the red channel (FL3; 620 nm longpass filter). Data acquisition and analysis was performed using XL-System II software (available from the company COULTER). It can be seen that Diflunisal causes pH-dependent pore formation in cancer cells.

[5] = 3 Diflunisal molecules bound to albumin, 0.17 mM albumin
[6] = 1.0 mM Diflunisal, 0.2 mM albumin
[7] = ratio 6:1 Diflunisal to albumin
[8] = 1.0 mM Diflunisal, 0.06 mM albumin, third affinity level

concentration in blood ([2]; 100 mg/kg administered orally): ≤ 1000 µM | dose at which the saturation concentration is reached ([2]; oral administration): 50 mg/kg | saturation concentration in blood ([2]; oral administration): 250 µg/mL | saturation concentration (resorption saturation) ([2]; oral administration, converted from 250 μg/ml): 1.00 mM and 1.0 mM | interstitial concentration ([2]; patient treatments, 1000 mg/day, Diflunisal to albumin ratio <2:1): < 0.3 mM
Compound: O=C(O)c1cc(-c2ccc(F)cc2F)ccc1O [Diflunisal, 5-(2,4-difluorophenyl)salicylic acid]
pH range of lactate antiport [1, 5]: 6.6-7.4 pH | pH range in which lactate efflux is remarkably enhanced ([1]; FIG. 3, against control without Diflunisal): 6.0 to 7.2 pH | Diflunisal/lactate antiport ([1]; three Diflunisal bound to albumin, first affinity stage): no antiport happens | pH at which deviation from normal respiration activity reaches its maximum (RT112 cells; [6]): ~6.9 pH | pH at which inhibition of respiration activity starts (RT112 cells; [6]): ~7.2 pH | respiration activity within pH range 7.0-7.4 (RT112 cells; 1.5 mM Diflunisal (same up to 2.0 mM), 0.2 mM albumin): 0 | pH range of the new respiration blockade effect (RT112 cells; 7 to 9 Diflunisal to albumin): 7.0-7.4 pH | blockade of the respiration chain (RT112 cells; ratio 4:1 Diflunisal to albumin): significant increase in activity | pH range in which the blockade effect declines to ineffectiveness (RT112 cells; [7]): 6.9 to 7.2 pH | pH up to which the respiration blockade reaches an optimum (RT112 cells; [7]): ≤ 6.9 pH | blockade of the respiration chain (RT112 cells; three bound Diflunisal molecules per albumin): no substantial blockade | pH at which apoptosis ends [3, 8]: 7.4 pH | pH at which apoptosis starts [3, 8]: 7.0 pH | pH range in which apoptosis occurs ([3]; 4 to 6 Diflunisal bound to albumin): 6.0-7.2 pH | pH range in which apoptosis is achieved ([3]; Diflunisal/albumin ratio 7-9, 0.17 mM albumin): 7.0-7.4 pH | active concentration of Diflunisal ([4]; Life Science 70, 2001, 37-48): suprapharmacological and intrinsically cytotoxic | cancer cell kill ([4]; patient treatments, 1000 mg/day): no cancer cell kill takes place | starting pH of the second pore formation process (leukemia cell line K-562; 0.2 mM albumin): 6.4 pH | pH of pore formation, third affinity level of albumin (leukemia cell line K-562; 1.25 mM to 1.5 mM Diflunisal, 0.2 mM albumin): ≤ 7.0 pH | pH at which pore formation happens (leukemia cell line K-562; [5]): < 6.5 pH | interstitial concentration from which pore formation starts in a therapy-relevant pH range (leukemia cell line K-562; FIG. 2, 0.2 mM albumin): ≥ 1.25 mM | pH at which pore formation can be produced (leukemia cell line K-562; cancer cell suspensions, flow cytometer): < 7.0 pH | starting pH of a third transport system (fourth affinity level of albumin) (leukemia cell line K-562; not shown in FIG. 2): 7.2-7.3 pH | interstitial Diflunisal concentration at which pore formation starts (leukemia cell line K-562; pH<7.0): about 0.7 mM
